Consider 29 molecules from patent US20240083861A1, “HSD17B13 INHIBITORS AND USES THEREOF” (FL2022-001, Inc., priority 2020, published 2024).

Molecules are shown by their SMILES.

As a reminder, the IC50 is the concentration at which inhibition is half-maximal. Usually inhibition stands for how much of the control response was suppressed.

The first test deals with T1, Recombinant human HSD17B13 enzyme (Homo sapiens, UniProt Q7Z5P4).
T1 sequence (Q7Z5P4 20-300): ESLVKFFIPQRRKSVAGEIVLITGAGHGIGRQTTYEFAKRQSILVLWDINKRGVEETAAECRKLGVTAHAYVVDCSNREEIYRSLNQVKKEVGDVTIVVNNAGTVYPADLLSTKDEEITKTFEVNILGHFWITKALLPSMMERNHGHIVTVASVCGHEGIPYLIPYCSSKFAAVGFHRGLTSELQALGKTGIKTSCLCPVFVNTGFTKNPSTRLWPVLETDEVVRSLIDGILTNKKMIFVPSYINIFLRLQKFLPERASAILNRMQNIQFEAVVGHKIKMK
Kind of test: HSD17b13 NAD(P)H-Glo biochemical assay. Conditions: 50 uM estradiol, 1 mM NAD+, NAD(P)H-Glo luminescence; read-out: HSD17β13 IC50. Summed up: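 Recombinant human HSD17B13 in 20 mM Tris pH7.4 with 0.002% Tween-20 and 0.02% BSA was preincubated with inhibitor for 20 minutes at RT. The reaction ran 3 hours at 37° C with 50 uM estradiol and 1 mM NAD+ (final). NADH formed was detected by NAD(P)H-Glo luminescence after 1 hour at RT.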
`Cn1nc(-c2cc(C(F)(F)F)c(F)c(O)c2F)c2cnc(NC34CC(C3)C4)nc21` [Compound 9.15, 3-(6-(Bicyclo[1.1.1]pentan-1-ylamino)-1-methyl-1H-pyrazolo[3,4-d]pyrimidin-3-yl)-2,6-difluoro-5-(trifluoromethyl)phenol]: the IC50 is less than 100 nM.

For `Cn1nc(-c2cc(C(F)(F)F)c(F)c(O)c2F)c2cnc(NC3CCC3)nc21` [Compound 9.16, 3-(6-(Cyclobutylamino)-1-methyl-1H-pyrazolo[3,4-d]pyrimidin-3-yl)-2,6-difluoro-5-(trifluoromethyl)phenol], the IC50 is less than 100 nM.

In the case of `CN(c1cc2c(cn1)c(-c1cc(C(F)(F)F)c(F)c(O)c1F)nn2C)C1CCOCC1` [Compound 9.17, 2,6-Difluoro-3-(1-methyl-6-(methyl(tetrahydro-2H-pyran-4-yl)amino)-1H-pyrazolo[4,3-c]pyridin-3-yl)-5-(trifluoromethyl)phenol], the IC50 is less than 100 nM.

As for `CN(c1ccc2c(-c3cc(C(F)(F)F)c(F)c(O)c3F)nn(C)c2n1)C1CCC1` [Compound 9.18, 3-(6-(Cyclobutyl(methyl)amino)-1-methyl-1H-pyrazolo[3,4-b]pyridin-3-yl)-2,6-difluoro-5-(trifluoromethyl)phenol], the IC50 was less than 100 nM.

Turning to `Cn1nc(-c2cc(C(F)(F)F)c(F)c(O)c2F)c2ccc(N3CCOCC34CC4)cc21` [Compound 9.19, 2,6-Difluoro-3-(1-methyl-6-(7-oxa-4-azaspiro[2.5]octan-4-yl)-1H-indazol-3-yl)-5-(trifluoromethyl)phenol], the IC50 was less than 100 nM.

As to `Cn1nc(-c2cc(C(F)(F)F)c(F)c(O)c2F)c2cnc(N3C4CCC3COC4)cc21` [Compound 9.20, 3-(6-(3-Oxa-8-azabicyclo [3.2.1]octan-8-yl)-1-methyl-1H-pyrazolo[4,3-c]pyridin-3-yl)-2,6-difluoro-5-(trifluoromethyl)phenol], the IC50 is less than 100 nM.

As to `COCC1(N(C)c2cc3c(cn2)c(-c2cc(C(F)(F)F)c(F)c(O)c2F)nn3C)CCC1` [Compound 9.21, 2,6-Difluoro-3-(6-((1-(methoxymethyl)cyclobutyl)(methyl)amino)-1-methyl-1H-pyrazolo[4,3-c]pyridin-3-yl)-5-(trifluoromethyl)phenol], the IC50 was less than 100 nM.

With `CS(=O)(=O)N1CCN(c2ccc3c(-c4cc(O)c(F)c(C(F)(F)F)c4)n[nH]c3c2)CC1` [Compound 9.23, 2-Fluoro-5-(6-(4-(methylsulfonyl)piperazin-1-yl)-1H-indazol-3-yl)-3-(trifluoromethyl)phenol], the IC50 is 100 to 1000 nM.

Consider `CS(=O)(=O)N1CCN(c2cc3[nH]nc(-c4cc(O)c(F)c(C(F)(F)F)c4)c3cc2F)CC1` [Compound 9.24, 2-Fluoro-5-(5-fluoro-6-(4-(methylsulfonyl)piperazin-1-yl)-1H-indazol-3-yl)-3-(trifluoromethyl)phenol], for which the IC50 was in the range of 100 to 1000 nM.

With `Cc1cc(-c2n[nH]c3cc(N4CCN(S(C)(=O)=O)CC4)ccc23)c(F)c(O)c1F` [Compound 9.25, 2,6-Difluoro-3-methyl-5-(6-(4-(methylsulfonyl)piperazin-1-yl)-1H-indazol-3-yl)phenol], the IC50 is 100 to 1000 nM.

With `Cn1nc(-c2cc(O)c(F)c(C(F)(F)F)c2)c2ccc(N3CCN(S(C)(=O)=O)CC3)cc21` [Compound 9.26, 2-Fluoro-5-(1-methyl-6-(4-(methylsulfonyl)piperazin-1-yl)-1H-indazol-3-yl)-3-(trifluoromethyl)phenol], the IC50 lay within 100 to 1000 nM.

In the case of `CN(c1cc2c(cn1)c(-c1cc(C(F)(F)F)c(F)c(O)c1F)nn2C)C1CCOC1` (centres unmarked) [Compound 9.27, 2,6-Difluoro-3-(1-methyl-6-(methyl(tetrahydrofuran-3-yl)amino)-1H-pyrazolo[4,3-c]pyridin-3-yl)-5-(trifluoromethyl)phenol], the IC50 was 100 to 1000 nM.

On to `Cn1nc(-c2cc(C(F)(F)F)c(F)c(O)c2F)c2cnc(N3CC4CCC3CO4)cc21` (centres unmarked) [Compound 9.28, 3-(6-(2-Oxa-5-azabicyclo[2.2.2]octan-5-yl)-1-methyl-1H-pyrazolo[4,3-c]pyridin-3-yl)-2,6-difluoro-5-(trifluoromethyl)phenol], for which the IC50 is less than 100 nM.

Take `Cn1nc(-c2cc(C(F)(F)F)c(F)c(O)c2F)c2cnc(N(C3CCC3)C3CCOCC3)cc21` [Compound 9.29, 3-(6-(Cyclobutyl(tetrahydro-2H-pyran-4-yl)amino)-1-methyl-1H-pyrazolo[4,3-c]pyridin-3-yl)-2,6-difluoro-5-(trifluoromethyl)phenol]: the IC50 is less than 100 nM.

As for `C[C@@H]1COCCN1c1cc2c(cn1)c(-c1cc(C(F)(F)F)c(F)c(O)c1F)nn2C` [Compound 9.30, (R)-2,6-Difluoro-3-(1-methyl-6-(3-methylmorpholino)-1H-pyrazolo[4,3-c]pyridin-3-yl)-5-(trifluoromethyl)phenol], the IC50 is less than 100 nM.

For the molecule `Cn1nc(-c2cc(C(F)(F)F)c(F)c(O)c2F)c2cnc(N3CCOCC3(C)C)cc21` [Compound 9.31, 3-(6-(3,3-Dimethylmorpholino)-1-methyl-1H-pyrazolo[4,3-c]pyridine-3-yl)-2,6-difluoro-5-(trifluoromethyl)phenol], the IC50 was less than 100 nM.

`CN(c1cc2c(cn1)c(-c1cc(C(F)(F)F)c(F)c(O)c1F)nn2C)C12CC(C1)C2` [Compound 9.32, 3-(6-(Bicyclo[1.1.1]pentan-1-yl(methyl)amino)-1-methyl-1H-pyrazolo[4,3-c]pyridin-3-yl)-2,6-difluoro-5-(trifluoromethyl)phenol]: the IC50 was less than 100 nM.

On to `Cn1nc(-c2cc(C(F)(F)F)c(F)c(O)c2F)c2cnc(N3CCOC(C)(C)C3)cc21` [Compound 9.33, 3-(6-(2,2-Dimethylmorpholino)-1-methyl-1H-pyrazolo[4,3-c]pyridin-3-yl)-2,6-difluoro-5-(trifluoromethyl)phenol], for which the IC50 was less than 100 nM.

With `CC(C)n1nc(-c2cc(C(F)(F)F)c(F)c(O)c2F)c2cnc(N3CCOCC34CC4)cc21` [Compound 9.34, 2,6-Difluoro-3-(1-isopropyl-6-(7-oxa-4-azaspiro[2.5]octan-4-yl)-1H-pyrazolo[4,3-c]pyridin-3-yl)-5-(trifluoromethyl)phenol], the IC50 is less than 100 nM.

In the case of `Cn1nc(-c2cc(C(F)(F)F)c(F)c(O)c2F)c2cnc(N3CCOCC34CCC4)cc21` [Compound 9.35, 2,6-Difluoro-3-(1-methyl-6-(8-oxa-5-azaspiro[3.5]nonan-5-yl)-1H-pyrazolo[4,3-c]pyridin-3-yl)-5-(trifluoromethyl)phenol], the IC50 is less than 100 nM.

With `CO[C@H]1C[C@@H](N(C)c2cc3c(cn2)c(-c2cc(C(F)(F)F)c(F)c(O)c2F)nn3C)C1` [Compound 9.36, 2,6-Difluoro-3-(6-((cis-3-methoxycyclobutyl)(methyl)amino)-1-methyl-1H-pyrazolo[4,3-c]pyridin-3-yl)-5-(trifluoromethyl)phenol], the IC50 is less than 100 nM.

In the case of `CCn1nc(-c2cc(C(F)(F)F)c(F)c(O)c2F)c2cnc(N3CCOCC34CC4)cc21` [Compound 9.37, 3-(1-Ethyl-6-(7-oxa-4-azaspiro[2.5]octan-4-yl)-1H-pyrazolo[4,3-c]pyridin-3-yl)-2,6-difluoro-5-(trifluoromethyl)phenol], the IC50 is less than 100 nM.

For the molecule `Cn1nc(-c2cc(C(F)(F)F)c(F)c(O)c2F)c2cnc(N3CCOCC3C3CC3)cc21` (centres unmarked) [Compound 9.38, 3-(6-(3-Cyclopropylmorpholino)-1-methyl-1H-pyrazolo[4,3-c]pyridin-3-yl)-2,6-difluoro-5-(trifluoromethyl)phenol], the IC50 is less than 100 nM.

As for `CN(c1ncc2c(-c3cc(C(F)(F)F)c(F)c(O)c3F)nn(C)c2n1)C1CCOCC1` [Compound 9.39, 2,6-Difluoro-3-(1-methyl-6-(methyl(tetrahydro-2H-pyran-4-yl)amino)-1H-pyrazolo[3,4-d]pyrimidin-3-yl)-5-(trifluoromethyl)phenol], the IC50 is less than 100 nM.

`CN(c1ccc2c(-c3cc(C(F)(F)F)c(F)c(O)c3F)nn(C)c2n1)C1CCOCC1` [Compound 9.40, 2,6-Difluoro-3-(1-methyl-6-(methyl(tetrahydro-2H-pyran-4-yl)amino)-1H-pyrazolo[3,4-b]pyridin-3-yl)-5-(trifluoromethyl)phenol]: the IC50 was less than 100 nM.

On to `Cn1nc(-c2cc(C(F)(F)F)c(F)c(O)c2F)c2ccc(N3CCOCC34CCC4)nc21` [Compound 9.41, 2,6-Difluoro-3-(1-methyl-6-(8-oxa-5-azaspiro[3.5]nonan-5-yl)-1H-pyrazolo[3,4-b]pyridin-3-yl)-5-(trifluoromethyl)phenol], for which the IC50 is less than 100 nM.

As for `Cn1nc(-c2cc(C(F)(F)F)c(F)c(O)c2F)c2cnc(N3CC4CCC3CC4)cc21` [Compound 9.42, 3-(6-(2-Azabicyclo[2.2.2]octan-2-yl)-1-methyl-1H-pyrazolo[4,3-c]pyridin-3-yl)-2,6-difluoro-5-(trifluoromethyl)phenol], the IC50 was less than 100 nM.

Regarding `Cn1nc(-c2cc(C(F)(F)F)c(F)c(O)c2F)c2cnc(N3CCNC(=O)C34CC4)cc21` [Compound 9.43, 4-(3-(2,4-Difluoro-3-hydroxy-5-(trifluoromethyl)phenyl)-1-methyl-1H-pyrazolo[4,3-c]pyridin-6-yl)-4,7-diazaspiro[2.5]octan-8-one], the IC50 is less than 100 nM.

The test is the same for the next values; noted with them: at 10 uM compound; read-out: HSD17β13 % inhibition at 10 uM.
Regarding `CS(=O)(=O)N1CCN(c2ccc3c(-c4cc(O)cc(C(F)(F)F)c4F)n[nH]c3c2)CC1` [Compound 9.22, 4-Fluoro-3-(6-(4-(methylsulfonyl)piperazin-1-yl)-1H-indazol-3-yl)-5-(trifluoromethyl)phenol], the inhibition at 10 µM worked out at 36%.
